Measurements as given in patent US12599597B2, “Substituted N-benzhydrylacetamide inhibitors of jumanji domain histone demethylases for the treatment of cancer” (University of Kentucky Research Foundation, priority 2020, dated 2026).

Columns and labels:
Assay in all cases: Histone demethylase assay, purified enzyme panel
Assay type in all cases: biochemical
Conditions in all cases: Reference inhibitor
JMJD2C (KDM4C) = biological target: T1, JMJD2C (KDM4C) (Homo sapiens, UniProt Q9H3R0)
T1 sequence (Q9H3R0 1-1056): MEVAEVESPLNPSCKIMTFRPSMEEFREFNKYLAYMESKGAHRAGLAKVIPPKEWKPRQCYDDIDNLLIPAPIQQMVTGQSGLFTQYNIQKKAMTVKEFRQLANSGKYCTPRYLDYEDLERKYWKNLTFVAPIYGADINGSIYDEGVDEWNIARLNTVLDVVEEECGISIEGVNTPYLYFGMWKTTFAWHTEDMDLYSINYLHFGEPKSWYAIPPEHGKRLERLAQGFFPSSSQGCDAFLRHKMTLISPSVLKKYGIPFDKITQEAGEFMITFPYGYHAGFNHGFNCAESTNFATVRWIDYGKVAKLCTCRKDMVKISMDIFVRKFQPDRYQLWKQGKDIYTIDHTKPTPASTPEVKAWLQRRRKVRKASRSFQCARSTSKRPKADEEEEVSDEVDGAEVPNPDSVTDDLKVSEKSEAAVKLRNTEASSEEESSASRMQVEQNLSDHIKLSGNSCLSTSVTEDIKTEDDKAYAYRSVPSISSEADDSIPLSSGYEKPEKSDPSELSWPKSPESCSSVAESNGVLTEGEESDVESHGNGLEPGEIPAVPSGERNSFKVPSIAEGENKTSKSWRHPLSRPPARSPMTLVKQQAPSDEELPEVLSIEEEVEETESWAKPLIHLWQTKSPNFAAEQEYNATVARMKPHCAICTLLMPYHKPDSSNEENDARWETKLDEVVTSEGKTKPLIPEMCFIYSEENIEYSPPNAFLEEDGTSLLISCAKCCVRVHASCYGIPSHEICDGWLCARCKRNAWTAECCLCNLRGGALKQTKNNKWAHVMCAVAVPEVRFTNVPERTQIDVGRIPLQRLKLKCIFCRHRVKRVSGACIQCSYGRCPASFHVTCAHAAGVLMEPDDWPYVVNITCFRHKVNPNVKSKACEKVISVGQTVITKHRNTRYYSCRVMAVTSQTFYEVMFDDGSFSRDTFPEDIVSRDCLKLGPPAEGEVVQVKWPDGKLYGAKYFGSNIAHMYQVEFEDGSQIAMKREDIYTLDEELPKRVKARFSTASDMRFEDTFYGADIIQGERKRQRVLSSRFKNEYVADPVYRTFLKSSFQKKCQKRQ
Excerpt: (§1) Histone Demethylase Assay
(§2) To further examine the effects of 58B1 on histone demethylase, we screened a panel of purified histone demethylases was screened.

JMJD2A (KDM4A) = biological target: T2, JMJD2A (KDM4A) (Homo sapiens, UniProt O75164)
T2 sequence (O75164 1-1064): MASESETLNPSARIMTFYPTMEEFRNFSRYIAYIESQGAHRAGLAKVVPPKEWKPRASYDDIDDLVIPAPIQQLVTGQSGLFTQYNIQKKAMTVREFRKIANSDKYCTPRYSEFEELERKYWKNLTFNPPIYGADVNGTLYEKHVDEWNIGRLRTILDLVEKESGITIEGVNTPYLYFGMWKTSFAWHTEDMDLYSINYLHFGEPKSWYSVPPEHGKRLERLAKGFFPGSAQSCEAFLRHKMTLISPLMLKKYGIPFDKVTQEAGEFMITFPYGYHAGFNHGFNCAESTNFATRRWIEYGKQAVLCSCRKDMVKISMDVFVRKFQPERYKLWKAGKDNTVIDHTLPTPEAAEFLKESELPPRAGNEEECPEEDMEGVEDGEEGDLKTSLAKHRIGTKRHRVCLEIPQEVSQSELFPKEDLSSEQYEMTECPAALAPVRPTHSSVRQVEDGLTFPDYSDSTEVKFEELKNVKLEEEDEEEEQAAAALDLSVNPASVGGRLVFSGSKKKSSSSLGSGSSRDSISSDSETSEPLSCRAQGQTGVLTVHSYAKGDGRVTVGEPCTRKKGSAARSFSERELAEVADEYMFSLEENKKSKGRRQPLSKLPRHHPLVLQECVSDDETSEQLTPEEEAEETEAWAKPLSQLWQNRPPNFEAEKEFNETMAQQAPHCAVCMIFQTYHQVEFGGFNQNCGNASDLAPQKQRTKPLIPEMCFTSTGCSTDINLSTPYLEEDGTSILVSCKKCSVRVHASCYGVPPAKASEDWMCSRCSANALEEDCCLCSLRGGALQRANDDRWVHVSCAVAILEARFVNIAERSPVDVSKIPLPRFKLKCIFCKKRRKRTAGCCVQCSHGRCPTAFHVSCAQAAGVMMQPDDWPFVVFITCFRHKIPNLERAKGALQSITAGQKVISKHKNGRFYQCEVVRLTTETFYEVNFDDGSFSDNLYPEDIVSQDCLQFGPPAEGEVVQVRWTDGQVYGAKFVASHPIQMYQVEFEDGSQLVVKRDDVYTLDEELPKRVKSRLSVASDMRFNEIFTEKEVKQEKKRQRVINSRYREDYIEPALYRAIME
Excerpt: as §1, §2

FBXL10 (KDM2B) = biological target: T3, FBXL10 (KDM2B) (Homo sapiens, UniProt Q8NHM5)
T3 sequence (Q8NHM5 1-1336): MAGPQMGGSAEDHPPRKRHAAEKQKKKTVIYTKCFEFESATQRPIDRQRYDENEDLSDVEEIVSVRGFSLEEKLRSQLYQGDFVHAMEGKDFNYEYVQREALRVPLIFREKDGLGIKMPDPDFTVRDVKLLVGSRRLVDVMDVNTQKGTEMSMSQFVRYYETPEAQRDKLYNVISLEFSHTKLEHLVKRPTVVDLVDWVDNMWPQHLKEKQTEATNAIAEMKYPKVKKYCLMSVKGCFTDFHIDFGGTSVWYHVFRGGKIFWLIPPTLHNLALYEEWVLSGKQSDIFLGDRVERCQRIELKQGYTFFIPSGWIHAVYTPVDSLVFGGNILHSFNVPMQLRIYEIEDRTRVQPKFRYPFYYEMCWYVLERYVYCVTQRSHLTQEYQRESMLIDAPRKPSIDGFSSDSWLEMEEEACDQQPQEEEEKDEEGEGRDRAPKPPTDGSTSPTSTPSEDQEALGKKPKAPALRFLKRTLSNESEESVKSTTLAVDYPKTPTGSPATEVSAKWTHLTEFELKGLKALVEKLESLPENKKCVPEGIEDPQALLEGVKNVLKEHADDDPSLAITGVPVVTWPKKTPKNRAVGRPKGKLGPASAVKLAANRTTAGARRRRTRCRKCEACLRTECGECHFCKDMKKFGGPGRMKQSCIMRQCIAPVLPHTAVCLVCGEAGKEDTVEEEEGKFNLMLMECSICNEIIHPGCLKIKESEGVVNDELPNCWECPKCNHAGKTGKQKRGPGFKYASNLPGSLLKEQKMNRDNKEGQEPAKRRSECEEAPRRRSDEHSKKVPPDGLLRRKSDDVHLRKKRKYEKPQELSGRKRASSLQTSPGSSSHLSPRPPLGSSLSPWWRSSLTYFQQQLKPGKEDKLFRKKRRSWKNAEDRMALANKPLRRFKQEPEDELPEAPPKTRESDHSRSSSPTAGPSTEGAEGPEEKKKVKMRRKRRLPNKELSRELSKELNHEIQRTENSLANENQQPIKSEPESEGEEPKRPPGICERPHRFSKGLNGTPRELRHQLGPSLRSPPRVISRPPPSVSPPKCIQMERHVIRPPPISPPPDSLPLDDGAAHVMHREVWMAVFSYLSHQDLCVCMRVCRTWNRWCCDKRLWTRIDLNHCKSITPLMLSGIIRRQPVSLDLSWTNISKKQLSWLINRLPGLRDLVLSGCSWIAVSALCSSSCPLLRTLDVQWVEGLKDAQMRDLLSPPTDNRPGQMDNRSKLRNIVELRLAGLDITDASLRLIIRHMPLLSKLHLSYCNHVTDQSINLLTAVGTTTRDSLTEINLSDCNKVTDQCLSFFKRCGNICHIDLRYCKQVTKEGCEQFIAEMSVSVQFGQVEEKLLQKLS
Excerpt: as §1, §2

In the case of `O=C(O)c1ccnc(C(=O)O)c1` [2,4-Pyridine Dicarboxylic Acid, reference compound], the “% Inhibition” value (JMJD2C (KDM4C)) is reported as 100%, the “% Inhibition” value (JMJD2A (KDM4A)) is reported as 100% and the “% Inhibition” value (FBXL10 (KDM2B)) is reported as 99%.
